From patent US20240335462A1, “SULFUR/PHOSPHORUS-CONTAINING ARYL COMPOUND AND APPLICATION THEREOF” (MEDSHINE DISCOVERY INC., priority 2021, published 2024)

What was measured:
[1] = test system: TYK2 signaling pathway (IFN-α/pSTAT1); assay: IFN-α-stimulated pSTAT1 in human PBMC (flow cytometry); type: cell-based; settings: CD4-positive cells
Protocol: (§1) The purpose of this experiment was to detect the inhibitory effect of the compounds on cytokine-activated JAK-STAT signaling pathways in human peripheral blood mononuclear cells (PBMC).
(§2) • a) PBMCs frozen in liquid nitrogen were thawed in a 37° C. water bath, and culture medium was added. The mixture was then centrifuged at 320 g for 3 minutes. • b) Cells were resuspended in culture medium, counted, and the cell concentration was adjusted to 5×10^5 cells/mL with culture medium. Subsequently, the cell suspension was inoculated into […] 96-well round-bottom plates, with 200 μL per well. The plates were incubated at 37° C. with 5% CO2 for 90 minutes. • c) Different concentrations of the test compound (starting at 2 μM, 5-fold serial dilution, a total of 8 concentrations) were added, followed by incubation at 37° C. with 5% CO2 for 30 minutes. • d) IL-6 (final concentration at 20 ng/mL) was added to the first round-bottom plate and incubated at 37° C. with 5% CO2 for 15 minutes. • e) IFNα (final concentration at 1000 U/mL) was added to the second round-bottom plate and incubated at 37° C. with 5% CO2 for 15 minutes. • f) IL-2 (final concentration at 4 ng/mL) was added to the third round-bottom plate and incubated at 37° C. with 5% CO2 for 15 minutes. • g) GM-CSF (final concentration at […]) was added to the fourth round-bottom plate and incubated at 37° C. with 5% CO2 for 15 minutes. • h) Cells were centrifuged at 320 g for 3 minutes, and each well was washed once with 200 μL of staining solution. • i) 50 μL of staining solution containing human CD33 antibody was added to each well of the GM-CSF-stimulated culture plate, and 50 μL of staining solution containing CD4 antibody was added to the remaining three culture plates. The staining was performed at 4° C. for 30 minutes. The cells were washed twice with the staining solution. • j) 100 μL of fixation buffer was added to each well, and the cells were fixed at 4° C. for 15 minutes. The cells were washed once with the staining solution. • k) 100 μL of permeabilization buffer was added to each well, and the cells were permeabilized at 4° C. for 20 minutes. The cells were washed twice with the staining solution. • l) 50 μL of staining solution containing human pSTAT1 antibody was added to each well of the IL-6 and IFN-α-stimulated culture plates, and 50 μL of staining solution containing human pSTAT5 antibody was added to each well of the IL-2 and GM-CSF-stimulated culture plates. The staining was performed at room temperature for 15 minutes. The cells were washed twice with the staining solution. • m) The cells were resuspended in 150 μL of staining solution. • n) The fluorescence intensity of pSTAT1 (stimulated by IL-6 and IFN-α) or pSTAT5 (stimulated by IL-2) in CD4-positive cells was detected using flow cytometer. The fluorescence intensity of pSTAT5 (stimulated by GM-CSF) in CD33-positive cells was also detected.
(§3) Data analysis was performed using Flowjo software to determine the IC50 of the compounds.

TYK2 JH2 pseudokinase = TYK2 JH2 pseudokinase (Homo sapiens, UniProt P29597); assay: Inhibitory activity on TYK2 JH2 pseudokinase (TR-FRET); type: binding; settings: 60 min room temperature, read-out: Kinase half maximal inhibitory concentration IC50 TYK2 JH2
Protocol: In this experiment, the inhibitory effect of compounds on TYK2 JH2 pseudokinase was tested using the method of time-resolved fluorescence resonance energy transfer (TR-FRET). In the experiment, TYK2 JH2 or JAK1 JH2 pseudokinase can simultaneously bind to fluorescently labeled Tracer and Tb antibody to form a “sandwich structure”. Tb antibody, functioning as a fluorescent donor, produces fluorescence at a wavelength of 495 nm under the excitation of light at a specific wavelength. Tracer, functioning as a fluorescent acceptor, can receive fluorescence at a wavelength of 495 nm and thus produce fluorescence at a wavelength of 520 nm, i.e., a time-resolved fluorescence resonance energy transfer (TR-FRET) signal, only when it is within the “sandwich structure”, i.e., when it is sufficiently close to Tb antibody. When the compound is added to compete with Tracer for binding to the pseudokinase, the binding of Tracer decreases, leading to a weakened TR-FRET signal. The inhibitory activity of the compound binding to the pseudokinase can be reflected by the ratio of signal values at 520 nm/495 nm.
The working solution consists of the following components: HEPES (pH 7.5) at a final concentration of 20 mM; MgCl2 at a final concentration of 10 mM; Brij-35 at a final concentration of 0.015%; DTT at a final concentration of 2 mM; and BSA at a final concentration of 50 μg/mL.
• a) The compound was dissolved in DMSO to achieve a storage concentration of 10 mM. • b) Various concentrations of the compound, 200 times the final concentration, were prepared in a compound dilution plate and transferred to an Echo plate. • c) The Echo instrument was used to transfer 150 nL of the compound from the Echo plate to a 384-well experimental plate. • d) 5 μL of TYK2 JH2 kinase, at three times the final concentration, was added to the 384-well experimental plate. • e) 5 μL of Tb, at three times the final concentration, was added to the 384-well experimental plate. • f) 5 μL of Tracer, at three times the final concentration, was added to the 384-well experimental plate. • g) The plate was centrifuged for 30 seconds and then incubated at room temperature for 60 minutes. • h) The fluorescence signal values at 520 nm/495 nm were measured using an Envision plate reader (PerkinElmer).
Data analysis was performed using the XL-Fit software to determine the IC50 of the compounds.

[2] = test system: JAK1/2 signaling pathway (IL-6/pSTAT1); assay: IL-6-stimulated pSTAT1 in human PBMC (flow cytometry); type: cell-based; settings: CD4-positive cells
Protocol: as §1, §2, §3

Sequence of TYK2 JH2 pseudokinase (P29597 589-875 limits assumed): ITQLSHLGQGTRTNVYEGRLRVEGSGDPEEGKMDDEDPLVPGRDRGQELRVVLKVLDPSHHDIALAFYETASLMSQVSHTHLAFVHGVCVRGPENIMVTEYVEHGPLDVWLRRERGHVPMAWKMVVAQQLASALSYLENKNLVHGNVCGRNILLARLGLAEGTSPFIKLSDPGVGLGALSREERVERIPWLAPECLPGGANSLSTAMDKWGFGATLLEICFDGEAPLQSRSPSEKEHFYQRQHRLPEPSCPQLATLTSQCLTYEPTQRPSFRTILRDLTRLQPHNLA

SMILES	IC50 [1]	IC50 (TYK2 JH2 pseudokinase)	IC50 [2]
CNC(=O)c1nnc(NC(=O)C2CC2)cc1Nc1cccc(-c2ncc(S(=N)(=O)C(C)C)cn2)c1OC (single isomer, unassigned) [WX-011A]	2.6 nM	0.1 nM	87 nM
CNC(=O)c1nnc(NC(=O)C2CC2)cc1Nc1cccc(-c2ncc(S(=N)(=O)C(C)C)cn2)c1OC (single isomer, unassigned) [WX-011B]	2.4 nM	0.08 nM	72.5 nM
CNC(=O)c1nnc(NC(=O)C2CC2)cc1Nc1cccc(-c2ccc(S(=N)(=O)C(C)C)cn2)c1OC (single isomer, unassigned) [WX-012A]	2 nM	0.08 nM	52.4 nM
CNC(=O)c1nnc(NC(=O)C2CC2)cc1Nc1cccc(-c2ccc(S(=N)(=O)C(C)C)cn2)c1OC (single isomer, unassigned) [WX-012B]	1.5 nM	0.08 nM	32.5 nM
CNC(=O)c1cnc(NC(=O)C2CC2)cc1Nc1cccc(-c2ccc(S(=O)(=O)C(C)C)cn2)c1OC.Cl [Hydrochloride of WX-020]	1.3 nM	0.08 nM	164 nM
CNC(=O)c1cnc(NC(=O)C2CC2)cc1Nc1cccc(-c2ncc(S(=O)(=O)C(C)C)cn2)c1OC [WX-019]	1.5 nM	0.09 nM	99.7 nM
CNC(=O)c1nnc(NC(=O)C2CC2)cc1Nc1cccc(-c2ccc(P(=O)(C3CC3)C3CC3)cn2)c1OC [WX-021]	2.1 nM	0.08 nM	63.4 nM
